Measurements as given in PMC10788917 (Journal of Medicinal Chemistry, 2023).

Target: T1, HDAC8 Cys102Ser/Cys153Ser/Cys244Ser (Homo sapiens, UniProt Q9BY41, C102S/C153S/C244S)
T1 construct: made in house
T1 sequence (Q9BY41 1-377 C102S/C153S/C244S): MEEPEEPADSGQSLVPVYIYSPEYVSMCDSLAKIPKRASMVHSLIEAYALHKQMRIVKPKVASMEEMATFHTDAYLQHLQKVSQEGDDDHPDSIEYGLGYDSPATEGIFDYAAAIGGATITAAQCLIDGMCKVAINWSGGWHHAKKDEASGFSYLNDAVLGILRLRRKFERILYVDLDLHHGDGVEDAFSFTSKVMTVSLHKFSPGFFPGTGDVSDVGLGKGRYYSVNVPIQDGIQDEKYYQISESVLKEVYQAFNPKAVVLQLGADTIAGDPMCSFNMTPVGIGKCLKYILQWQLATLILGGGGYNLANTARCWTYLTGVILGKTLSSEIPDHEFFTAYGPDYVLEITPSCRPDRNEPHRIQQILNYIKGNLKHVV
Assay: HDAC8 mutant biochemical assay
Details: read-out: IC50 [μM] @ 100 nM HDAC8: E Cys102Ser/Cys153Ser/Cys244Ser, 1 h preincubation
Protocol: HDAC8 mutant variants were generated, produced, and further purified as described previously.[32] Cysteines 28 and 314 were exchanged with serine using the following primer pairs: HD8_C28S_for, […]; HD8_C28S_rev, […]; HD8_C314S_for, […]; HD8_C314S_rev, […].
The enzyme activity assay was performed in assay buffer [25 mM Tris-HCl (pH 8.0), 50 mM NaCl, and 0.001% (v/v) Pluronic F-68] in black half-area 96-well microplates (Greiner Bio-One). For the initial screening, 10 nM HDAC8 was preincubated with the indicated compounds at 250 μM for 2 h at 30 °C. […] The reaction was initiated by the addition of 20 μM Boc-Lys(TFA)-AMC (Bachem). After substrate conversion at 30 °C for 15 min for HDAC8 and 1 h for HDAC8 mutants and HDAC4, the reaction was stopped by adding 1.67 μM suberoylanilide trifluoromethylketone (SATFMK). The deacetylated substrate was cleaved with 0.42 mg/mL trypsin to release fluorescent 7-amino-4-methylcoumarin (AMC), which was detected with a microplate reader (PHERAstar FS […]) with fluorescence excitation at 360 nm and emission at 460 nm. IC50 values were calculated by generating dose–response curves in GraphPad Prism 6 and fitting those to a four-parameter logistic model.

Structure (SMILES) | IC50 [µM]
C[n+]1ccccc1I [A3+] | > 130
C[n+]1cncc(Br)c1 [F2+] | 87 ± 7
C#Cc1c[n+](C)ccn1 [G6+] | 100 ± 12
C[n+]1cncc(I)c1 [F3+] | 26 ± 4
C[n+]1ccc(I)cc1 [C3+] | > 130
C[n+]1cccnc1I [D3+] | 40 ± 6
C#Cc1cc[n+](C)cc1 [C6+] | 24 ± 3
C[n+]1cccnc1Br [D2+] | > 130
C#Cc1nccc[n+]1C [D6+] | > 130
C[n+]1cccnc1Cl [D1+] | > 130
